{"source": "patent US20040058975A1", "about": "“Method for fertility control” (Schering AG, priority 2002, published 2004)", "origin": "cited, not measured here", "key": {"ovulation [1]": {"system": "ovulation", "conditions": "several mammalian species including rats, rabbits, sheep"}, "ovulation [2]": {"system": "ovulation", "conditions": "monkeys"}, "ovulation [3]": {"system": "ovulation", "conditions": "women"}, "COX-2": {"biological_target": "COX-2 (Homo sapiens, UniProt P35354)", "sequence (P35354 18-604)": "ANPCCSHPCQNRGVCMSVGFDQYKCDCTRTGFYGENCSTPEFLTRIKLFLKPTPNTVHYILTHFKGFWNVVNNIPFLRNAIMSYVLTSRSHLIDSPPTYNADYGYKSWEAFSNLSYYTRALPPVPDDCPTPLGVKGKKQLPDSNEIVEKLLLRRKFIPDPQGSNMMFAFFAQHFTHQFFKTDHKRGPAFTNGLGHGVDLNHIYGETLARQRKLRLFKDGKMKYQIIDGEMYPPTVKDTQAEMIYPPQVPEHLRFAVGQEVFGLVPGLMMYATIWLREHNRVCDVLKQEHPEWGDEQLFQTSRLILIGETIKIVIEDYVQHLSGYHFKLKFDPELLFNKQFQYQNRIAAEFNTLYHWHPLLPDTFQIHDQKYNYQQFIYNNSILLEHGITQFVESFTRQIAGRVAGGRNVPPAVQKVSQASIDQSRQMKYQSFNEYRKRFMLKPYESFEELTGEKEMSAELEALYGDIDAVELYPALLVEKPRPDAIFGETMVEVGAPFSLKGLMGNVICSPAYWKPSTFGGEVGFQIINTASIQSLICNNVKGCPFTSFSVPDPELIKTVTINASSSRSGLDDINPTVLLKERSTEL", "conditions": "humans"}, "ovulation [4]": {"system": "ovulation", "conditions": "COX-2 deficient mice"}}, "note": "Where two headings read alike, the source gives them in different places.", "data": [{"compound": "CC(=O)Oc1ccccc1C(=O)O", "note": "[Aspirin]", "values": [{"measurement": "ovulation", "setting": "ovulation [1]", "result": "may prevent ovulation"}]}, {"compound": "COc1ccc2c(c1)c(CC(=O)O)c(C)n2C(=O)c1ccc(Cl)cc1", "note": "[Indomethacin]", "values": [{"measurement": "ovulation", "setting": "ovulation [1]", "result": "may prevent ovulation"}, {"measurement": "ovulation", "setting": "ovulation [2]", "result": "block ovulation"}, {"measurement": "ovulation", "setting": "ovulation [3]", "result": "block ovulation"}]}, {"compound": "COc1ccc2cc([C@H](C)C(=O)O)ccc2c1", "note": "[Naproxen]", "values": [{"measurement": "ovulation", "setting": "ovulation [1]", "result": "may prevent ovulation"}]}, {"compound": "CS(=O)(=O)c1ccc(C2=C(c3ccccc3)C(=O)OC2)cc1", "note": "[Rofecoxib, 4-(4-mesylphenyl)-3-phenylfuran-2(5H)-one]", "values": [{"measurement": "follicular rupture", "setting": "COX-2", "result": "delayed follicular rupture"}, {"measurement": "peripheral hormonal cycles", "setting": "COX-2", "result": "without affecting peripheral hormonal cycles"}]}, {"compound": "CCCCC[C@H](O)/C=C/[C@H]1[C@H](O)CC(=O)[C@@H]1C/C=C\\CCCC(=O)O", "note": "[prostaglandin E2]", "values": [{"measurement": "anovulation", "setting": "ovulation [4]", "result": "restored"}]}, {"compound": "Interleukin-1β: Interleukin-1β", "values": [{"measurement": "anovulation", "setting": "ovulation [4]", "result": "restored"}]}]}
